From the supplement of paper PMC10307832

How the values were obtained:
Experiment in all cases: relative viability (nuclei count vs DMSO), 5 days (fraction); higher = more cells survive
[1] = compound: Cc1cnc(CNC(=O)c2c(=O)c3ccc(N4CCCN(C)CC4)nc3n3c2sc2ccccc23)cn1 [CX-5461] + COc1cc2c(Oc3ccc(NC(=O)C4(C(=O)Nc5ccc(F)cc5)CC4)cc3F)ccnc2cc1OCCCN1CCOCC1 [Foretinib] (partner 0.25 µM)
Method in brief: (§1)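 For relative viability, nuclei counts in treated wells were divided by those in vehicle wells. Lung cancer cell lines had been pin-tool dosed in 1536-well plates the day after seeding and cultured for 5 days, then fixed and stained in one step (final 0.05% Triton X-100, 1% formaldehyde, 1 ug/ml Hoechst) and imaged at 4×. Doses were one drug alone or a fixed anchor-drug dose plus five library-drug doses (not always all listed) in √10 steps, and values are duplicate-plate medians.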

[2] = compound: Cc1cnc(CNC(=O)c2c(=O)c3ccc(N4CCCN(C)CC4)nc3n3c2sc2ccccc23)cn1 [CX-5461] + Nc1nc2[nH]cc(CCc3ccc(C(=O)N[C@@H](CCC(=O)O)C(=O)O)cc3)c2c(=O)[nH]1 [Pemetrexed] (partner 0.2 µM)
Method in brief: as §1

[3] = compound: O=C(Nc1cc(C(F)(F)F)cc(C(F)(F)F)c1)c1cc(Cl)ccc1O [IMD-0354] + CC(C)C[C@H](NC(=O)[C@H](Cc1ccccc1)NC(=O)c1cnccn1)B(O)O [Bortezomib] (partner 0.002 µM)
Method in brief: as §1

[4] = compound: O=C(Nc1cc(C(F)(F)F)cc(C(F)(F)F)c1)c1cc(Cl)ccc1O [IMD-0354] + C[C@@H](Oc1cc(-c2cnn(C3CCNCC3)c2)cnc1N)c1c(Cl)ccc(F)c1Cl [Crizotinib] (partner 1 µM)
Method in brief: as §1

UMC-11 gave a relative viability ([1]; first compound 0.01 µM) of 1.02, a relative viability ([1]; first compound 0.03162 µM) of 1.08 and a relative viability ([1]; first compound 0.1 µM) of 0.906. For the same cell line, the relative viability ([1]; first compound 0.3162 µM) was 1.15, the relative viability ([1]; first compound 1 µM) was 0.336 and the relative viability ([2]; first compound 0.01 µM) was 0.825. It also gave a relative viability ([2]; first compound 0.03162 µM) of 0.871, a relative viability ([2]; first compound 0.1 µM) of 0.722 and a relative viability ([2]; first compound 0.3162 µM) of 0.763. For the same cell line, the relative viability ([2]; first compound 1 µM) was 0.408, the relative viability ([3]; first compound 0.04 µM) was 1.13 and the relative viability ([3]; first compound 0.1265 µM) was 0.796. For the same cell line, the relative viability ([3]; first compound 0.4 µM) was 0.465, the relative viability ([3]; first compound 1.265 µM) was 0.237 and the relative viability ([3]; first compound 4 µM) was 0.212. For the same cell line, the relative viability ([4]; first compound 0.04 µM) was 0.701, the relative viability ([4]; first compound 0.1265 µM) was 0.578 and the relative viability ([4]; first compound 0.4 µM) was 0.432. It also gave a relative viability ([4]; first compound 1.265 µM) of 0.263 and a relative viability ([4]; first compound 4 µM) of 0.267.
